Experimental data reported in patent US8062681B2, “Amino acid oligomer dietary supplement” (The Curators Of The University Of Missouri, priority 2006, dated 2011).
Marks after values point to notes of the source that are not given here.

Tested on: rumen fluid

CSCCC(N)C(=O)O (centres unmarked) [D, L Met, D,L Methionine]
Supplemental Methionine Recovered: 12.25^c % | MOEFF (microbial efficiency) (continuous culture fermenters, .045 g/d supplement with 45 g/d soyhulls): 9.11 grams of bacterial nitrogen per kilogram organic matter fermented
